Values of other authors in patent US20220409591A1, “Pharmaceutical Formulations for Managing Uric Acid Content in Human Body” (ZYCIE TECHNOLEGAL LLP, priority 2019, published 2022).

Key:
[1] = known

## Cc1nc(-c2ccc(OCC(C)C)c(C#N)c2)sc1C(=O)O [febuxostat, 2-[3-cyano-4-(2-methylpropoxy)phenyl]-4-methylthiazole-5-carboxylic acid]
[1]
  bioavailability: more than 80%
  mean terminal elimination half-life: 5 to 8 h
other
  BCS class (poorly water-soluble drug): BCS Class II
